Two molecules from ChEMBL document CHEMBL4507297, “Data for DCP probe PF-04457845” (2021) can be followed below.

Data set [1] has as its target GABA-A receptor; anion channel (Rattus norvegicus) (UniProt O09028+P15431+P18506+P18508+P19969+P20236+P23574+P23576+P28471+P28473+P30191+P62813+P63079+P63138+Q91ZM7+Q9ES14). The note with it: Compound concentration 10.0 uM.
The target of data set [2] is T1, Alpha-2A adrenergic receptor (Homo sapiens) (UniProt P08913).
T1 sequence (whole entry): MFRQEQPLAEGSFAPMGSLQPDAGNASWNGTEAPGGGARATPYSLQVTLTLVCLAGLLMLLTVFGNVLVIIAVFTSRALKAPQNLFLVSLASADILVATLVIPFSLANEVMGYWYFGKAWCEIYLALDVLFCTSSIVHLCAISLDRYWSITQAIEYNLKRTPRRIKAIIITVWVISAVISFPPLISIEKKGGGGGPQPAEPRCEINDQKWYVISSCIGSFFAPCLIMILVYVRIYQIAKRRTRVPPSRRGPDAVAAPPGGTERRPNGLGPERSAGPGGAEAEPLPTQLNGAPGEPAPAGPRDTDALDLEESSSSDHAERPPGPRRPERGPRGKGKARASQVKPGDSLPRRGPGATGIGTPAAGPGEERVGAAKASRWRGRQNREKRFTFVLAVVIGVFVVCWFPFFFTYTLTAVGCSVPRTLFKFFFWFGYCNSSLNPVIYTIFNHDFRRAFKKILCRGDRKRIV
Put plainly: alpha2A (h) CEREP ligand profiling. The note with it: Compound concentration 10.0 uM.

In data set [3] the target is Muscarinic acetylcholine receptor M3 (Homo sapiens) (UniProt P20309). Put plainly: M3 (h) CEREP ligand profiling. The note with it: Compound concentration 10.0 uM.
Data set [4] concerns the target T2, GABA-A receptor; anion channel (Homo sapiens) (UniProt P14867+P47870+P18507+P28472+P48169+Q99928+Q9UN88+P34903+O00591+O14764+Q8N1C3+P18505+P78334+P47869+P31644+Q16445). The data set can be described thus: BZD (central) CEREP ligand profiling. Type of data set: protein-complex assay. The note with it: Compound concentration 10.0 uM.
For data set [5], the target named is Sigma non-opioid intracellular receptor 1 (Homo sapiens, UniProt Q99720). Put plainly: GPCRScan assay: inhibition of Sigma 1. On the set-up: radioligand conc. used [nm] 4.0 – 5.0, parental cells HEKT.
For another data set, the target named is Cannabinoid receptor 2 (Homo sapiens, UniProt P34972). The data set can be described thus: CB2 (h) CEREP ligand profiling.
Data set [6] has as its target Voltage-dependent N-type calcium channel subunit alpha-1B (Homo sapiens) (UniProt Q00975). Put plainly: Ca2+ channel (N) CEREP ligand profiling. Particulars: Compound concentration 10.0 uM; call rule not given here.
Data set [7] deals with Delta-type opioid receptor (Homo sapiens) (UniProt P41143). The data set can be described thus: delta2 (h) (DOP) CEREP ligand profiling. Particulars: Compound concentration 10.0 uM.
Data set [8] concerns the target 5-hydroxytryptamine receptor 4 (Homo sapiens) (UniProt Q13639). Put plainly: 5-HT4e (h) CEREP ligand profiling. Particulars: Compound concentration 10.0 uM.
In data set [9] the target is Ca2+ channel (L, diltiazem site) (benzothiazepines); voltage-gated L-type calcium channel (Homo sapiens, UniProt O60840+Q01668+Q13698+Q13936). Put plainly: Ca2+ channel (L, diltiazem site) (benzothiazepines) CEREP ligand profiling. Type of data set: protein assay. The note with it: compound concentration 10 uM.
The target of data set [10] is High affinity choline transporter 1 (Homo sapiens) (UniProt Q9GZV3). Put plainly: Choline transporter (h) (CHT1) CEREP ligand profiling. Particulars: Compound concentration 10.0 uM.
The target in data set [11] is D(2) dopamine receptor (Homo sapiens) (UniProt P14416). The data set can be described thus: D2S (h) CEREP ligand profiling. Particulars: Compound concentration 10.0 uM.
Data set [12] deals with Glutamate [NMDA] receptor (Homo sapiens) (UniProt Q05586+Q12879+Q13224+O15399+O60391+Q14957+Q8TCU5). The data set can be described thus: NMDA CEREP ligand profiling. The data set is classed as protein-complex assay. Particulars: Compound concentration 10.0 uM.
Data set [13] deals with Adenosine receptor A1 (Homo sapiens) (UniProt P30542). Put plainly: A1 (h) CEREP ligand profiling. Particulars: Compound concentration 10.0 uM.
The nature of data set [14]: GPCRScan assay: inhibition of GABA/PBR. On the set-up: species or system Rattus norvegicus; radioligand conc. used [nm] 0.3 – 2.0, parental cells brain tissue.
Data set [15] has as its target Alpha-2B adrenergic receptor (Homo sapiens) (UniProt P18089). The note with it: Compound concentration 10.0 uM.
For data set [16], the target named is T3, Muscarinic acetylcholine receptor M2 (Homo sapiens) (UniProt P08172).
T3 sequence (whole entry): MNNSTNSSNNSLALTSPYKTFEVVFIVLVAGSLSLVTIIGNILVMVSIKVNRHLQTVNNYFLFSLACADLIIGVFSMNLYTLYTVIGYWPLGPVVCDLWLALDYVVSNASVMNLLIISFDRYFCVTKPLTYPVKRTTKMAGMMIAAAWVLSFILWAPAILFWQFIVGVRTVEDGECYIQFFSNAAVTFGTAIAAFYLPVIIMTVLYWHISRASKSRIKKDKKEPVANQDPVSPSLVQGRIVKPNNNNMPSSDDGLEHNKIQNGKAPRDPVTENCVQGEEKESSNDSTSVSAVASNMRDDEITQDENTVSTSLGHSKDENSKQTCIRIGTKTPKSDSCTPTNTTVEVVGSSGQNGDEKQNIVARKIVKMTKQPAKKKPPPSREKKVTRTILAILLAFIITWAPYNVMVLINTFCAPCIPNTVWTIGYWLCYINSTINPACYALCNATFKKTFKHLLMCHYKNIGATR
Put plainly: M2 (h) CEREP ligand profiling. The note with it: Compound concentration 10.0 uM.

The target of data set [17] is D(1A) dopamine receptor (Homo sapiens) (UniProt P21728). Put plainly: D1 (h) CEREP ligand profiling. Particulars: Compound concentration 10.0 uM.
For data set [18], the target named is Na+ channel (site 2); sodium channel alpha subunit (Homo sapiens, UniProt P35498+P35499+Q01118+Q14524+Q15858+Q99250+Q9NY46+Q9UI33+Q9UQD0+Q9Y5Y9). The data set can be described thus: Na+ channel (site 2) CEREP ligand profiling. Type of data set: protein assay. The note with it: compound concentration 10 uM.
The target of data set [19] is T2, GABA-A receptor; anion channel (Homo sapiens). Put plainly: GABAA CEREP ligand profiling. The data set is classed as protein-complex assay. The note with it: Compound concentration 10.0 uM.
Data set [20] deals with Ca2+ channel (L, DHP site); voltage-gated L-type calcium channel (Homo sapiens, UniProt O60840+Q01668+Q13698+Q13936). Put plainly: Ca2+ channel (L, DHP site) CEREP ligand profiling. The data set is classed as protein assay. The note with it: compound concentration 10 uM.
In data set [21] the target is Mu-type opioid receptor (Homo sapiens) (UniProt P35372). The data set can be described thus: mu (h) (MOP) (agonist site) CEREP ligand profiling. The note with it: Compound concentration 10.0 uM.
Data set [22] addresses Mitogen-activated protein kinase 14 (Homo sapiens) (UniProt Q16539). Put plainly: p38alpha kinase (h) CEREP ligand profiling. The note with it: Compound concentration 10.0 uM.
Data set [23] addresses Sodium-dependent serotonin transporter (Homo sapiens) (UniProt P31645). The data set can be described thus: 5-HT transporter (h) CEREP ligand profiling. Particulars: Compound concentration 10.0 uM.
The target in data set [24] is Histamine H2 receptor (Homo sapiens) (UniProt P25021). The data set can be described thus: H2 (h) CEREP ligand profiling. The note with it: Compound concentration 10.0 uM.
The target in data set [25] is 5-hydroxytryptamine receptor 2B (Homo sapiens, UniProt P41595). The data set can be described thus: GPCRScan assay: inhibition of 5-HT2B. On the set-up: radioligand conc. used [nm] 1.0 – 2.0, parental cells stable HEK.
The target in data set [26] is Sodium-dependent dopamine transporter (Homo sapiens) (UniProt Q01959). Put plainly: DA transporter (h) CEREP ligand profiling. Particulars: Compound concentration 10.0 uM.
Data set [27] deals with MAO-A (Amine oxidase [flavin-containing] A) (Homo sapiens, UniProt P21397). Put plainly: MAO-A CEREP ligand profiling. The note with it: compound concentration 10 uM.
Data set [28] has as its target Cholecystokinin receptor type A (Homo sapiens) (UniProt P32238). The data set can be described thus: CCKA (h) (CCK1) CEREP ligand profiling. The note with it: Compound concentration 10.0 uM.

Cannabinoid receptor 2, sequence (P34972 whole entry): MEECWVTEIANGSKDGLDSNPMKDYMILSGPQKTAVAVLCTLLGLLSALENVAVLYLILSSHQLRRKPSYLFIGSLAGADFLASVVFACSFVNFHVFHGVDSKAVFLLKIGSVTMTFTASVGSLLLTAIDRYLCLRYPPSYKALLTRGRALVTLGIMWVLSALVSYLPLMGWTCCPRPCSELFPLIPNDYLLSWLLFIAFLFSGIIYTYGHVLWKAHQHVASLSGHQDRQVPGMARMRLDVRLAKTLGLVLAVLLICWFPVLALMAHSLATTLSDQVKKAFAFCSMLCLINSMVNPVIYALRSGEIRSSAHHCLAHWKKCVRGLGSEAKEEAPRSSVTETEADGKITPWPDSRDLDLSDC
Delta-type opioid receptor (Homo sapiens), sequence (P41143 whole entry): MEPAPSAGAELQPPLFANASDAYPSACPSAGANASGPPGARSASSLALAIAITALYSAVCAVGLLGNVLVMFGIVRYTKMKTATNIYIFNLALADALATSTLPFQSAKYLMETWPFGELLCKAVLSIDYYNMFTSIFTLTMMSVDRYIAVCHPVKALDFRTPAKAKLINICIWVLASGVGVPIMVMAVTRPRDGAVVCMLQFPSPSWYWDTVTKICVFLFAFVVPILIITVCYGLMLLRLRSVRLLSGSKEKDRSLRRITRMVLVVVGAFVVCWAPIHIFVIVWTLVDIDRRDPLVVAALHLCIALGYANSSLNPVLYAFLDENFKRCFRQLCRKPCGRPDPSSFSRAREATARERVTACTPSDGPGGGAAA
Sodium-dependent dopamine transporter (Homo sapiens), sequence (Q01959 whole entry): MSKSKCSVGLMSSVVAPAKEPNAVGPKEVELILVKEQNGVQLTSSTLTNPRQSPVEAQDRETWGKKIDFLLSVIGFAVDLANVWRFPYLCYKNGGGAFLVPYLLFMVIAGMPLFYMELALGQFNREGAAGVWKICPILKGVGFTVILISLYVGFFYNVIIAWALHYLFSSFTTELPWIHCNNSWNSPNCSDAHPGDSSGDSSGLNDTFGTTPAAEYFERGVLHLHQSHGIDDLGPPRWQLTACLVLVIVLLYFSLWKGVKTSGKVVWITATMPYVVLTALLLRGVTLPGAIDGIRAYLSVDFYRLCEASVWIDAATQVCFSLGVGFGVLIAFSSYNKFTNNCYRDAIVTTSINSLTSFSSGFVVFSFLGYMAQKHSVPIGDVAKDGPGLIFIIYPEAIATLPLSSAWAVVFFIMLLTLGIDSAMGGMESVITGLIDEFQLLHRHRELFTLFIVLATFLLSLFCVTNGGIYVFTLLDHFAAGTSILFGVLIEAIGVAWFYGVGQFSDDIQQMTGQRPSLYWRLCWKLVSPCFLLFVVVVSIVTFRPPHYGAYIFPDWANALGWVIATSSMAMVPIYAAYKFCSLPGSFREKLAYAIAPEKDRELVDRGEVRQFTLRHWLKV
Mu-type opioid receptor (Homo sapiens), sequence (P35372 whole entry): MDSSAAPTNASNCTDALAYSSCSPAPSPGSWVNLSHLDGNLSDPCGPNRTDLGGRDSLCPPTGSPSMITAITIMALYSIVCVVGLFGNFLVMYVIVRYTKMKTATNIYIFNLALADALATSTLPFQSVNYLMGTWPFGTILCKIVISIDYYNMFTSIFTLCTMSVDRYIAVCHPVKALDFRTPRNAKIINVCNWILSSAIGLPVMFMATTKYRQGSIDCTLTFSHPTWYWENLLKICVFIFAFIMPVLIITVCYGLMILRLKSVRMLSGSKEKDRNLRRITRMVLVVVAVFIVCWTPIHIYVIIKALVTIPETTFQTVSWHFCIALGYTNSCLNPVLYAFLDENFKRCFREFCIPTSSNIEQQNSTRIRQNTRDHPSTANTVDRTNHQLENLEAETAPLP
Adenosine receptor A1 (Homo sapiens), sequence (P30542 whole entry): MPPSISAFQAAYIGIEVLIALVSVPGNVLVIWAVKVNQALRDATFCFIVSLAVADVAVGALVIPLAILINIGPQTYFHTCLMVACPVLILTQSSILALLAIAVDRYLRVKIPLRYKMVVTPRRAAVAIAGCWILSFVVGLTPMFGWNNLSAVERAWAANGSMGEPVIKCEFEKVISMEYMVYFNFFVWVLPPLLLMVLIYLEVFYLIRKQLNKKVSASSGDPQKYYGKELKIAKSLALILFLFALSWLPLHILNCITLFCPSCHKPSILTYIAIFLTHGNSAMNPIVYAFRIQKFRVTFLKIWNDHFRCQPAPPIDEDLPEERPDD
Cholecystokinin receptor type A (Homo sapiens), sequence (P32238 whole entry): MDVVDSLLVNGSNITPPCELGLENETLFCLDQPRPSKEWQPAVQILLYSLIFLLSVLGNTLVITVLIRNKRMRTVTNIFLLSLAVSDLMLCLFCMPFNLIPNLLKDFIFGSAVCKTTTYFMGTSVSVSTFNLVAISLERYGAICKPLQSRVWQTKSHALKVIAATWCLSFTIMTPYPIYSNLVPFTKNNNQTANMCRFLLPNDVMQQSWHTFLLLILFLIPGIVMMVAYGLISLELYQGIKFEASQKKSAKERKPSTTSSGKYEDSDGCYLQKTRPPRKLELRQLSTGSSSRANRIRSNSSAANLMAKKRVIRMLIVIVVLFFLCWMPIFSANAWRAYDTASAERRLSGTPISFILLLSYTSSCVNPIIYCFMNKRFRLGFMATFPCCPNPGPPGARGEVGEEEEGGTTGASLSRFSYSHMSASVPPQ
Histamine H2 receptor (Homo sapiens), sequence (P25021 whole entry): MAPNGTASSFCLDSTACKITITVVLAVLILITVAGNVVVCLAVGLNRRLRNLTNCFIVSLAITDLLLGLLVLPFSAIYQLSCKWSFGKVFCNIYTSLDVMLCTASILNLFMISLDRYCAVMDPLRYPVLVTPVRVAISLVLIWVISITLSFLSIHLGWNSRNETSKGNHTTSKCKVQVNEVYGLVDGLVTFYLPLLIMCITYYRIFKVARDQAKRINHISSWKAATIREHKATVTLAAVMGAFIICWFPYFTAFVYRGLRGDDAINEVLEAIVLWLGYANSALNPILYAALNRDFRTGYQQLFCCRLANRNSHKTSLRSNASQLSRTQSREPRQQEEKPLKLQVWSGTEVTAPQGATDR
High affinity choline transporter 1 (Homo sapiens), sequence (Q9GZV3 whole entry): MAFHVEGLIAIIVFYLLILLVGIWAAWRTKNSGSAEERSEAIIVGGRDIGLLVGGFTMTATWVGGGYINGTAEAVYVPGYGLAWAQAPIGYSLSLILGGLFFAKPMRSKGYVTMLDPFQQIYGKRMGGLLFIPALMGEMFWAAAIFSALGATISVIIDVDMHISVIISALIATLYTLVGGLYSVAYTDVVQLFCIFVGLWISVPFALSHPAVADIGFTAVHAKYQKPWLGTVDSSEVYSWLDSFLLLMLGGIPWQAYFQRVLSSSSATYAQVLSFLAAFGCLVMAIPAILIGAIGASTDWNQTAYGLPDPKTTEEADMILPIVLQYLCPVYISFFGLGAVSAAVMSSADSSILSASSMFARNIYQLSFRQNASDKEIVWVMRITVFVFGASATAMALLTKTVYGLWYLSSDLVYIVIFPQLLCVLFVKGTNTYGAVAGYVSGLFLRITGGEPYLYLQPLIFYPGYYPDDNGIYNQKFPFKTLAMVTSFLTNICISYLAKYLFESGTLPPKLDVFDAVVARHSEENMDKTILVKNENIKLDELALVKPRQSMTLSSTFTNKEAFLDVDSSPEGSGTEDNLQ
MAO-A (Amine oxidase [flavin-containing] A), sequence (P21397 whole entry): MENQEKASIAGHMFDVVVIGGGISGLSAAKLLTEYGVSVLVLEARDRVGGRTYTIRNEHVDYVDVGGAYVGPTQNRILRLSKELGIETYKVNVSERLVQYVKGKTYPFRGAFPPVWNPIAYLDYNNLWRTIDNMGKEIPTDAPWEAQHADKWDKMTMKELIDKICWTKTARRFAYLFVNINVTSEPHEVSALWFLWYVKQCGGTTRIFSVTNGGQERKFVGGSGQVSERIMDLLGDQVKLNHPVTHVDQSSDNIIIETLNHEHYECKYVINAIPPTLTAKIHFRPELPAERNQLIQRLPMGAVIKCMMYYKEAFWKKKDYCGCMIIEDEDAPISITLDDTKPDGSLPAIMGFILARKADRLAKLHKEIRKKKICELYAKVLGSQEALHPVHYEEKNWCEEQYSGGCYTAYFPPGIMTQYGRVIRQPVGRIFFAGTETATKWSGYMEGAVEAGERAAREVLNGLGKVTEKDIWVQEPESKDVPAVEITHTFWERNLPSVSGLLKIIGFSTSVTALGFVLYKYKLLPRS
Alpha-2B adrenergic receptor (Homo sapiens), sequence (P18089 whole entry): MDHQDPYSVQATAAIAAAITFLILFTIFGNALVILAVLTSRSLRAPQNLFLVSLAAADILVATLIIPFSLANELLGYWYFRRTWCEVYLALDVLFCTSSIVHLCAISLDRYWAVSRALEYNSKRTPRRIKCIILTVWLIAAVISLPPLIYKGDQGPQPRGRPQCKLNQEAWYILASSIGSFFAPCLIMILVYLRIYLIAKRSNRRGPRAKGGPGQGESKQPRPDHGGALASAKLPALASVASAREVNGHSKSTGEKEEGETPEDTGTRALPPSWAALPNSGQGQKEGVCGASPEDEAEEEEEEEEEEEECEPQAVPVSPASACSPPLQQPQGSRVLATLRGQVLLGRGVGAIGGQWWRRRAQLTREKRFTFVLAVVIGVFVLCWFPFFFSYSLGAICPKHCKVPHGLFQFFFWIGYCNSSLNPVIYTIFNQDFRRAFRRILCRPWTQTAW
D(2) dopamine receptor (Homo sapiens), sequence (P14416 whole entry): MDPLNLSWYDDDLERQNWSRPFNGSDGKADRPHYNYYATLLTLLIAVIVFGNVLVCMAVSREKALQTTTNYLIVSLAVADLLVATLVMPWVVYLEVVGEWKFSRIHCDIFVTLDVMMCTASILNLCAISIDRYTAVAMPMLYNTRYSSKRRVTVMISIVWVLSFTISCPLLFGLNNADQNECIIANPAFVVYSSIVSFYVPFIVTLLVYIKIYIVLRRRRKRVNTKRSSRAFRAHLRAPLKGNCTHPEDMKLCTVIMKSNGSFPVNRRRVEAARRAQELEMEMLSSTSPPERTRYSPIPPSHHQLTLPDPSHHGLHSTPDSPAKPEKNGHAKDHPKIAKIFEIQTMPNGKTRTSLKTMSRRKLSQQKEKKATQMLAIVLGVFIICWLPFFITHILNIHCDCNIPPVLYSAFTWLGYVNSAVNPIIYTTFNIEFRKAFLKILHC

A word on the inhibition: it is the change of the read-out against control, counted positive when it falls. Turning to `O=C(Nc1cccnn1)N1CC(C/C=C/c2cncc(Oc3ccc(C(F)(F)F)cn3)n2)C1`, the inhibition in [1] is 23.7%.
Usually Ki stands for a measure of affinity in units of concentration, obtained from inhibition or displacement. One may read the pKi as the Ki on a negative log10 scale, so that one unit is a factor of ten. `O=C(Nc1cccnn1)N1CCC(=Cc2cccc(Oc3ccc(C(F)(F)F)cn3)c2)CC1`: the inhibition is -4% in data set [2]; 11% in [3]; 15% in data set [4]; 55% at Cannabinoid receptor 2 (Compound concentration 10.0 uM); -5% in [6]; 2% in [7]. Further, the inhibition in data set [8] is -8%; in data set [10], 18%; in [11] it was -9%; in data set [12] it was -3%; in data set [13] it was 3%; in data set [15], 40%. The inhibition in [16] is 15%; in [17], 3%; in [19], -4%; in data set [21] it was 3%; in data set [22], 1%; in [23] it was 11%. Moreover, the values for the inhibition in data set [24], in [26] and in data set [28] were -6%, -1% and -10%, respectively. In addition, the inhibitory constant (Ki) in data set [5] was 0.472 µM; on Cannabinoid receptor 2 it was 5.1 µM; in data set [14] it was 1.14 µM; in data set [25] it was 1.34 µM. In addition, the inhibition at 10 µM in [9] was 1% (not active); in data set [18], 13% (not active); in data set [20], 11% (not active); in data set [27] it was 13% (not active). Also, the pKi in data set [14] is listed as 5.94.
